≈ marks a conversion by molar mass, not a printed value.
Key:
Assay in all cases: antimicrobial activity, broth dilution method
Format in all cases: cell-based
[1] = system: Streptococcus pyogenes MH-771; conditions: Streptococcus pyogenes, MH771, Streptococcus pyogenes MH-771, drug-resistant clinical isolate; read-out: minimum inhibitory concentration (MIC)
Protocol: (§1) Antimicrobial activity of the new antibiotics according to the present invention was measured on various pathogenic microorganisms by the broth dilution mehtod. Tab. […] The new antibiotics show a similar antimicrobial spectrum to that of tylosin as shown in Tab. 4. All the compounds have an excellent antimicrobial activity mainly on gram-positive bacteria. […] Test microorganisms with an asterisk mark (*) in Tab. 4 are all drug-resistant strains that were clinically isolated. More in detail, Staphylococcus aureus MS-8710 is resistant to tylosin, penicillin, tetracycline, erythromycin and leucomycin. Staphylococcus aureus MS-9931 is resistant to tylosin, penicillin, erythromycin, tetracycline, leucomycin, spiramycin and josamycin. And also Streptococcus piogenes is resistant to tylosin, erythromycin, oleandomycin and leucomycin.

[2] = system: Staphylococcus aureus MS-9931; conditions: MS9931; Staphylococcus aureus MS-9931, drug-resistant clinical isolate; read-out: minimum inhibitory concentration (MIC)
Protocol: as §1

[3] = system: Staphylococcus aureus SMITH; conditions: Staphylococcus aureus, Staphylococcus aureus SMITH; broth dilution; read-out: minimum inhibitory concentration (MIC)
Protocol: as §1

Sarcina lutea ATCC 9341 = conditions: Micrococcus luteus, ATCC9341, Sarcina lutea ATCC 9341, read-out: minimum inhibitory concentration (MIC)
Protocol: as §1

[4] = system: Staphylococcus aureus MS-8710; conditions: Staphylococcus aureus, MS8710, Staphylococcus aureus MS-8710, drug-resistant clinical isolate; read-out: minimum inhibitory concentration (MIC)
Protocol: as §1

[5] = system: Staphylococcus aureus MS-9937; conditions: MS9937; Staphylococcus aureus MS-9937, drug-resistant clinical isolate; read-out: minimum inhibitory concentration (MIC)
Protocol: as §1

[6] = system: Staphylococcus aureus FDA-209P; conditions: Staphylococcus aureus, FDA209P, Staphylococcus aureus FDA-209P; broth dilution; read-out: minimum inhibitory concentration (MIC)
Protocol: as §1

[7] = system: Bacillus cereus ATCC 9634; conditions: Bacillus cereus, ATCC9634, Bacillus cereus ATCC 9634; broth dilution; read-out: minimum inhibitory concentration (MIC)
Protocol: as §1

**Q.** With `CCC1OC(=O)CC(O)C(C)C(OC2OC(C)C(OC3CC(C)(O)C(OC(=O)CCC(C)C)C(C)O3)C(N(C)C)C2O)C(CC=O)CC(C)C(=O)C=CC(C)=CC1COC1OC(C)C(O)C(OC)C1OC` (stereo not drawn) [Compound 11, 4"-iso-caproyl(or iso-hexanoyl)tylosin] as the compound, how does the MIC [1] read?
**A.** Its MIC is 6.25 µg/mL (≈ 6.16 µM).

**Q.** What about the MIC [2] of the same compound?
**A.** Its MIC is 12.5 µg/mL (≈ 12.3 µM).

**Q.** What about the MIC [3] of the same compound?
**A.** Its MIC is 0.78 µg/mL (≈ 0.769 µM).

**Q.** And the MIC (Sarcina lutea ATCC 9341)?
**A.** Its MIC is 0.39 µg/mL (≈ 0.385 µM).

**Q.** What about the MIC [4] of the same compound?
**A.** The MIC was 12.5 µg/mL (≈ 12.3 µM).

**Q.** What about the MIC [5] of the same compound?
**A.** The MIC was 12.5 µg/mL (≈ 12.3 µM).

**Q.** And the MIC [6]?
**A.** The MIC was 0.78 µg/mL (≈ 0.769 µM).

**Q.** And the MIC [7]?
**A.** Its MIC is 0.78 µg/mL (≈ 0.769 µM).

**Q.** Which MIC [1] does the source give for `CCC1OC(=O)CC(OC(C)=O)C(C)C(OC2OC(C)C(OC3CC(C)(O)C(OC(=O)C(Cc4ccc(OC(C)=O)cc4)OC(C)=O)C(C)O3)C(N(C)C)C2O)C(CC=O)CC(C)C(=O)C=CC(C)=CC1COC1OC(C)C(O)C(OC)C1OC` (stereo not drawn) [Compound 28, 3-acetyl-4"-[α-acetoxy-β-(4-acetoxyphenyl)propionyl]tylosin] here?
**A.** The MIC was 25 µg/mL (≈ 20.7 µM).

**Q.** What about the MIC [2] of the same compound?
**A.** Its MIC is 50 µg/mL (≈ 41.4 µM).

**Q.** What about the MIC [3] of the same compound?
**A.** Its MIC is 1.56 µg/mL (≈ 1.29 µM).

**Q.** And the MIC (Sarcina lutea ATCC 9341)?
**A.** Its MIC is 0.78 µg/mL (≈ 0.647 µM).

**Q.** What about the MIC [4] of the same compound?
**A.** The MIC was 25 µg/mL (≈ 20.7 µM).

**Q.** And the MIC [5]?
**A.** Its MIC is 25 µg/mL (≈ 20.7 µM).

**Q.** What about the MIC [6] of the same compound?
**A.** Its MIC is 1.56 µg/mL (≈ 1.29 µM).

**Q.** What about the MIC [7] of the same compound?
**A.** The MIC was 1.56 µg/mL (≈ 1.29 µM).

**Q.** How did the MIC [1] turn out when `CCC1OC(=O)CC(O)C(C)C(OC2OC(C)C(OC3CC(C)(O)C(OC(=O)CSc4cccc(C)c4)C(C)O3)C(N(C)C)C2O)C(CC=O)CC(C)C(=O)C=CC(C)=CC1COC1OC(C)C(O)C(OC)C1OC` (stereo not drawn) [Compound 36, 4"-(3-methylphenyl)thioacetyltylosin] was run?
**A.** The MIC was 25 µg/mL (≈ 23.1 µM).

**Q.** And the MIC [2]?
**A.** Its MIC is 50 µg/mL (≈ 46.3 µM).

**Q.** What about the MIC [3] of the same compound?
**A.** The MIC was 0.78 µg/mL (≈ 0.722 µM).

**Q.** What about the MIC (Sarcina lutea ATCC 9341) of the same compound?
**A.** Its MIC is 0.39 µg/mL (≈ 0.361 µM).

**Q.** And the MIC [4]?
**A.** Its MIC is 25 µg/mL (≈ 23.1 µM).

**Q.** What about the MIC [5] of the same compound?
**A.** Its MIC is 50 µg/mL (≈ 46.3 µM).

**Q.** And the MIC [6]?
**A.** The MIC was 0.78 µg/mL (≈ 0.722 µM).

**Q.** And the MIC [7]?
**A.** The MIC was 0.78 µg/mL (≈ 0.722 µM).

**Q.** `CCC1OC(=O)CC(O)C(C)C(OC2OC(C)C(OC3CC(C)(O)C(OC(=O)CCSc4ccccc4)C(C)O3)C(N(C)C)C2O)C(CC=O)CC(C)C(=O)C=CC(C)=CC1COC1OC(C)C(O)C(OC)C1OC` (stereo not drawn) [Compound 39, 4"-β-phenylthiopropionyltylosin] was tested. Which MIC [1] did it give?
**A.** Its MIC is 6.25 µg/mL (≈ 5.79 µM).

**Q.** And the MIC [2]?
**A.** The MIC was 12.5 µg/mL (≈ 11.6 µM).

**Q.** And the MIC [3]?
**A.** Its MIC is 0.39 µg/mL (≈ 0.361 µM).

**Q.** And the MIC (Sarcina lutea ATCC 9341)?
**A.** The MIC was 0.19 µg/mL (≈ 0.176 µM).

**Q.** What about the MIC [4] of the same compound?
**A.** The MIC was 12.5 µg/mL (≈ 11.6 µM).

**Q.** What about the MIC [5] of the same compound?
**A.** Its MIC is 12.5 µg/mL (≈ 11.6 µM).

**Q.** What about the MIC [6] of the same compound?
**A.** Its MIC is 0.78 µg/mL (≈ 0.722 µM).

**Q.** What about the MIC [7] of the same compound?
**A.** Its MIC is 0.39 µg/mL (≈ 0.361 µM).

**Q.** What does the source list for `CCC1OC(=O)CC(O)C(C)C(OC2OC(C)C(OC3CC(C)(O)C(O)C(C)O3)C(N(C)C)C2OC(C)=O)C(CC=O)CC(C)C(=O)C=CC(C)=CC1COC1OC(C)C(OC(=O)CCl)C(OC)C1OC` (stereo not drawn) [Compound 1, 2'-acetyl-4'"-monochloracetyltylosin]?
**A.** MIC [1]: 200 µg/mL (≈ 193 µM); MIC [2]: 200 µg/mL (≈ 193 µM); MIC [3]: 1.56 µg/mL (≈ 1.51 µM); MIC (Sarcina lutea ATCC 9341): 0.78 µg/mL (≈ 0.754 µM); MIC [4]: > 200 µg/mL; MIC [5]: 200 µg/mL (≈ 193 µM); MIC [6]: 1.56 µg/mL (≈ 1.51 µM); MIC [7]: 1.56 µg/mL (≈ 1.51 µM)

**Q.** Which results are given for `CCC1OC(=O)CC(OC(C)=O)C(C)C(OC2OC(C)C(OC3CC(C)(O)C(OC(=O)C(C)c4ccccc4)C(C)O3)C(N(C)C)C2O)C(CC=O)CC(C)C(=O)C=CC(C)=CC1COC1OC(C)C(O)C(OC)C1OC` (stereo not drawn) [Compound 15, 3-acetyl-4"-α-phenylpropionyltylosin]?
**A.** MIC [1]: 12.5 µg/mL (≈ 11.5 µM); MIC [2]: 25 µg/mL (≈ 22.9 µM); MIC [3]: 0.39 µg/mL (≈ 0.358 µM); MIC (Sarcina lutea ATCC 9341): 0.19 µg/mL (≈ 0.174 µM); MIC [4]: 25 µg/mL (≈ 22.9 µM); MIC [5]: 25 µg/mL (≈ 22.9 µM); MIC [6]: 0.39 µg/mL (≈ 0.358 µM); MIC [7]: 0.78 µg/mL (≈ 0.715 µM)

**Q.** How did the MIC [1] turn out when `CCC1OC(=O)CC(O)C(C)C(OC2OC(C)C(OC3CC(C)(O)C(OC(=O)CSc4ccc(C)cc4)C(C)O3)C(N(C)C)C2O)C(CC=O)CC(C)C(=O)C=CC(C)=CC1COC1OC(C)C(O)C(OC)C1OC` (stereo not drawn) [Compound 35, 4"-(4-methylphenyl)thioacetyltylosin] was run?
**A.** The MIC was 12.5 µg/mL (≈ 11.6 µM).

**Q.** What about the MIC [2] of the same compound?
**A.** Its MIC is 25 µg/mL (≈ 23.1 µM).

**Q.** And the MIC [3]?
**A.** Its MIC is 1.56 µg/mL (≈ 1.44 µM).

**Q.** What about the MIC (Sarcina lutea ATCC 9341) of the same compound?
**A.** The MIC was 0.78 µg/mL (≈ 0.722 µM).

**Q.** What about the MIC [4] of the same compound?
**A.** The MIC was 25 µg/mL (≈ 23.1 µM).

**Q.** And the MIC [5]?
**A.** Its MIC is 50 µg/mL (≈ 46.3 µM).

**Q.** And the MIC [6]?
**A.** Its MIC is 1.56 µg/mL (≈ 1.44 µM).

**Q.** What about the MIC [7] of the same compound?
**A.** The MIC was 1.56 µg/mL (≈ 1.44 µM).

**Q.** What does the source list for `CCC1OC(=O)CC(O)C(C)C(OC2OC(C)C(OC3CC(C)(O)C(O)C(C)O3)C(N(C)C)C2OC(C)=O)C(CC=O)CC(C)C(=O)C=CC(C)=CC1COC1OC(C)C(O)C(OC)C1OC` (stereo not drawn) [2'-acetyltylosin, reference compound]?
**A.** MIC [1]: > 200 µg/mL; MIC [2]: 200 µg/mL (≈ 209 µM); MIC [3]: 1.56 µg/mL (≈ 1.63 µM); MIC (Sarcina lutea ATCC 9341): 0.39 µg/mL (≈ 0.407 µM); MIC [4]: > 200 µg/mL; MIC [5]: 200 µg/mL (≈ 209 µM); MIC [6]: 1.56 µg/mL (≈ 1.63 µM); MIC [7]: 1.56 µg/mL (≈ 1.63 µM)

**Q.** Which MIC [1] does the source give for `CCC(C(=O)OC1C(C)OC(OC2C(C)OC(OC3C(CC=O)CC(C)C(=O)C=CC(C)=CC(COC4OC(C)C(O)C(OC)C4OC)C(CC)OC(=O)CC(O)C3C)C(O)C2N(C)C)CC1(C)O)c1ccccc1` (stereo not drawn) [Compound 16, 4"-α-phenyl-n-butyryltylosin] here?
**A.** Its MIC is 6.25 µg/mL (≈ 5.88 µM).

**Q.** And the MIC [2]?
**A.** The MIC was 25 µg/mL (≈ 23.5 µM).

**Q.** What about the MIC [3] of the same compound?
**A.** Its MIC is 0.39 µg/mL (≈ 0.367 µM).

**Q.** And the MIC (Sarcina lutea ATCC 9341)?
**A.** Its MIC is 0.19 µg/mL (≈ 0.179 µM).

**Q.** And the MIC [4]?
**A.** Its MIC is 12.5 µg/mL (≈ 11.8 µM).

**Q.** And the MIC [5]?
**A.** Its MIC is 12.5 µg/mL (≈ 11.8 µM).

**Q.** What about the MIC [6] of the same compound?
**A.** Its MIC is 0.39 µg/mL (≈ 0.367 µM).

**Q.** What about the MIC [7] of the same compound?
**A.** The MIC was 0.78 µg/mL (≈ 0.734 µM).

— US4205163A, “Tylosin derivatives” (Sanraku-Ocean Co., Ltd., priority 1977, dated 1980)
